# Legend:
# [1] = Antiproliferative activity against human GTL16 cells after 72 hrs by MTS assay; format: functional, cell-based; settings: GTL 16, 72 h
# [2] = target: Hepatocyte growth factor receptor (Homo sapiens, UniProt P08581); test: Inhibition of MET
# [3] = tested on: NCI-N87; test: Antiproliferative activity against human N87 cells after 72 hrs by MTS assay; format: functional, cell-based; settings: NCI-N87, 72 h
# [4] = Antitumor activity against human GTL16 cells xenografted BALB/c mouse assessed as induction of complete tumor stasis at 25 mg/kg, po qd administered 14 days after tumor implantation; format: functional; settings: GTL 16, 336 h, read-out: TGI
# [5] = target: Vascular endothelial growth factor receptor 2 (Homo sapiens, UniProt P35968); test: Inhibition of VEGFR2
# [6] = AUC (0 to 24 hrs) in BALB/c mouse at 5 mg/kg, iv; format: ADME, organism-based; set-up: time < 24 hr, dose 5 mg/kg, route intravenous; settings: plasma
# [7] = target: MAP kinase-activated protein kinase 2 (Homo sapiens, UniProt P49137); test: Inhibition of MK2
# [8] = AUC (0 to 24 hrs) in BALB/c mouse at 10 mg/kg, po; format: ADME, organism-based; set-up: time < 24 hr, dose 10 mg/kg, route oral; settings: plasma
# [9] = Tmax in BALB/c mouse at 10 mg/kg, po; format: ADME, organism-based; set-up: dose 10 mg/kg, route oral; settings: in vivo
# [10] = target: T1, Receptor-type tyrosine-protein kinase FLT3 (Homo sapiens, UniProt P36888); test: Inhibition of Flt3
# T1 sequence (P36888 whole entry): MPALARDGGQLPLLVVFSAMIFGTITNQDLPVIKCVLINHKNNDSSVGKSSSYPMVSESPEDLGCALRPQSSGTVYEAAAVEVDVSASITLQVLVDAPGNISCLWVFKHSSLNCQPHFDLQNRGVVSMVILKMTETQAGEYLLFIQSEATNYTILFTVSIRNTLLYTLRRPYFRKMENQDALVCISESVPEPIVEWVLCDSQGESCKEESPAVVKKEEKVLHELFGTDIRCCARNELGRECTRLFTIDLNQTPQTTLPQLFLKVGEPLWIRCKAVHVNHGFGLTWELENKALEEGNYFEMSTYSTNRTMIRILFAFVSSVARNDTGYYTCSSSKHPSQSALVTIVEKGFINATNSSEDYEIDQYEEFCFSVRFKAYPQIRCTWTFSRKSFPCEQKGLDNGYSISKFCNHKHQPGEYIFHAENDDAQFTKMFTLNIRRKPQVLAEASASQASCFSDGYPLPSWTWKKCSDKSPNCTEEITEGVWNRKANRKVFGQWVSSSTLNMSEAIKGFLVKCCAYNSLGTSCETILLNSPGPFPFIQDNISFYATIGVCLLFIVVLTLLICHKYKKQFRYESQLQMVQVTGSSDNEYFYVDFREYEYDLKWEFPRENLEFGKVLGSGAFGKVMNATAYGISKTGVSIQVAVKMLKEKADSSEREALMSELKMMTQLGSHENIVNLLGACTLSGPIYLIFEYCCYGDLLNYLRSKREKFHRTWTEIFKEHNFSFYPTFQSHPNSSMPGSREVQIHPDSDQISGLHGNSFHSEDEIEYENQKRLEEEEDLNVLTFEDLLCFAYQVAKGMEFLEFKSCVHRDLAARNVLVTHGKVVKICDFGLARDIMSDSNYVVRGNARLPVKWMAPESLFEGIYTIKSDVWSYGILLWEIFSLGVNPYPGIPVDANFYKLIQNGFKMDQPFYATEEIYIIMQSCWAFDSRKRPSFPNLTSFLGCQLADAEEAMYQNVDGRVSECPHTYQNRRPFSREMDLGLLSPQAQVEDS
# [11] = Cmax in BALB/c mouse at 10 mg/kg, po; format: ADME, organism-based; set-up: dose 10 mg/kg, route oral; settings: in vivo
# [12] = tested on: Serum; test: Protein binding in mouse serum at 10 uM by equilibrium dialysis method; format: ADME, cell-free
# [13] = Half life in BALB/c mouse at 10 mg/kg, po; format: ADME, organism-based; set-up: dose 10 mg/kg, route oral; settings: in vivo
# [14] = target: Insulin receptor (Homo sapiens, UniProt P06213); test: Inhibition of InsR
# [15] = target: Mast/stem cell growth factor receptor Kit (Homo sapiens, UniProt P10721); test: Inhibition of c-Kit
# [16] = target: Insulin-like growth factor 1 receptor (Homo sapiens, UniProt P08069); test: Inhibition of IGF1R
# [17] = Inhibition of PKA
# [18] = Metabolic stability in mouse liver microsomes assessed as metabolic rate per mg of protein at 3 uM; format: ADME, Microsome
# [19] = target: Cyclin-dependent kinase 2 (Homo sapiens, UniProt P24941); test: Inhibition of CDK2/cyclin E
# [20] = Clearance in BALB/c mouse at 5 mg/kg, iv; format: ADME, organism-based; set-up: dose 5 mg/kg, route intravenous; settings: in vivo
# [21] = target: Tyrosine-protein kinase Lck (Homo sapiens, UniProt P06239)
# [22] = Toxicity in human GTL16 cells xenografted BALB/c mouse assessed as maximum tolerated dose at 100 mg/kg, po qd administered 14 days after tumor implantation; format: organism-based; set-up: dose 100 mg/kg, route oral; settings: in vivo
# [23] = Antitumor activity against human GTL16 cells xenografted po dosed BALB/c mouse administered once daily 14 days after tumor implantation; format: functional; settings: GTL 16, po, 336 h, read-out: MED
# [24] = tested on: Serum; test: Protein binding in human serum at 10 uM by equilibrium dialysis method; format: ADME, cell-free
# [25] = Mean residence time in BALB/c mouse at 5 mg/kg, iv; format: ADME, organism-based; set-up: dose 5 mg/kg, route intravenous; settings: in vivo
# [26] = Oral bioavailability in BALB/c mouse at 10 mg/kg, po; format: ADME, organism-based; settings: in vivo
# [27] = target: Protein kinase C alpha type (Homo sapiens, UniProt P17252); test: Inhibition of PKCalpha
# [28] = tested on: Liver microsomes; test: Metabolic stability in human liver microsomes assessed as metabolic rate per mg of protein at 3 uM; format: ADME, Microsome
# [29] = Volume of distribution at steady state in BALB/c mouse at 5 mg/kg, iv; format: ADME, organism-based; set-up: dose 5 mg/kg, route intravenous; settings: in vivo, read-out: Vdss
# [30] = Half life in BALB/c mouse at 5 mg/kg, iv; format: ADME, organism-based; set-up: dose 5 mg/kg, route intravenous; settings: in vivo
# [31] = Antitumor activity against human GTL16 cells xenografted BALB/c mouse assessed as induction of tumor regression at 50 mg/kg, po qd administered 14 days after tumor implantation; format: functional; settings: GTL 16, 336 h, read-out: TGI
# [32] = Antitumor activity against human GTL16 cells xenografted BALB/c mouse assessed as at 12.5 mg/kg, po qd administered 14 days after tumor implantation; settings: GTL 16, po, 336 h, read-out: TGI
# [33] = Mean residence time in BALB/c mouse at 10 mg/kg, po; format: ADME, organism-based; set-up: dose 10 mg/kg, route oral; settings: in vivo
# Chain of Hepatocyte growth factor receptor (P08581 whole entry): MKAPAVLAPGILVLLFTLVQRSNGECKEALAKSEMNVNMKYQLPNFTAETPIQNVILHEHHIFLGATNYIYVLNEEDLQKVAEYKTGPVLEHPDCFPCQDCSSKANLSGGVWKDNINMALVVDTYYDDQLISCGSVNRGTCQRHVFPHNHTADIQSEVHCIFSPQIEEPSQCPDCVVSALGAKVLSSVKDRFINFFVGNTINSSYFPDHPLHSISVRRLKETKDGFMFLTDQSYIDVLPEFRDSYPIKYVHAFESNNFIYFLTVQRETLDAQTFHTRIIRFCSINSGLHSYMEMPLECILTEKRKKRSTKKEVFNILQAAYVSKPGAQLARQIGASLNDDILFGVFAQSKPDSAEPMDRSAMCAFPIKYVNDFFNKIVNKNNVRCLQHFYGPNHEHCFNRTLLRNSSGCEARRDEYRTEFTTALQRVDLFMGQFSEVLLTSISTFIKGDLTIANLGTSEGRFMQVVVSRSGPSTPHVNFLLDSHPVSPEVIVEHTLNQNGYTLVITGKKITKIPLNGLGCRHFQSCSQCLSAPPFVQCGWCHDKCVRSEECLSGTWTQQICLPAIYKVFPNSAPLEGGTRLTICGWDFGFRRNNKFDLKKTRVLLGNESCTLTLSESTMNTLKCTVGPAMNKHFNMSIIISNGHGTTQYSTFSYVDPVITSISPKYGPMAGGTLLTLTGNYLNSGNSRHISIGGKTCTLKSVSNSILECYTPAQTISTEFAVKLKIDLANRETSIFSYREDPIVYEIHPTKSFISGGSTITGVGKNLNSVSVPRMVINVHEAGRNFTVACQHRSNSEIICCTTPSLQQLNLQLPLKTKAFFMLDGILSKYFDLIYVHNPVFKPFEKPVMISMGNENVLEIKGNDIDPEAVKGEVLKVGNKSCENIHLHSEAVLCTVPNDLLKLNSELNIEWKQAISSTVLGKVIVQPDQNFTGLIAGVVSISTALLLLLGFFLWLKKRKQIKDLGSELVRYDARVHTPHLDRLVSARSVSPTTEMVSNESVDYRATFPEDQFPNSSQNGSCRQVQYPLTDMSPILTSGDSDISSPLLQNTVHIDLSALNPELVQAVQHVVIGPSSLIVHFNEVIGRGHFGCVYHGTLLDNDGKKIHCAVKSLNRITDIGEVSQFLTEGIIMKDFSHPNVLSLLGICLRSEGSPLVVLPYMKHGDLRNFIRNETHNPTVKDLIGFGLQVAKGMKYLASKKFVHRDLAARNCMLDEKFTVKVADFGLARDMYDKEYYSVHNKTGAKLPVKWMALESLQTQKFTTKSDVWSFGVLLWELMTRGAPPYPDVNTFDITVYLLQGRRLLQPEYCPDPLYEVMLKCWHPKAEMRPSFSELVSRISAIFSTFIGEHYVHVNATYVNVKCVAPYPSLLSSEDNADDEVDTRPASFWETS
# Chain of Insulin receptor (P06213 28-758 limits assumed): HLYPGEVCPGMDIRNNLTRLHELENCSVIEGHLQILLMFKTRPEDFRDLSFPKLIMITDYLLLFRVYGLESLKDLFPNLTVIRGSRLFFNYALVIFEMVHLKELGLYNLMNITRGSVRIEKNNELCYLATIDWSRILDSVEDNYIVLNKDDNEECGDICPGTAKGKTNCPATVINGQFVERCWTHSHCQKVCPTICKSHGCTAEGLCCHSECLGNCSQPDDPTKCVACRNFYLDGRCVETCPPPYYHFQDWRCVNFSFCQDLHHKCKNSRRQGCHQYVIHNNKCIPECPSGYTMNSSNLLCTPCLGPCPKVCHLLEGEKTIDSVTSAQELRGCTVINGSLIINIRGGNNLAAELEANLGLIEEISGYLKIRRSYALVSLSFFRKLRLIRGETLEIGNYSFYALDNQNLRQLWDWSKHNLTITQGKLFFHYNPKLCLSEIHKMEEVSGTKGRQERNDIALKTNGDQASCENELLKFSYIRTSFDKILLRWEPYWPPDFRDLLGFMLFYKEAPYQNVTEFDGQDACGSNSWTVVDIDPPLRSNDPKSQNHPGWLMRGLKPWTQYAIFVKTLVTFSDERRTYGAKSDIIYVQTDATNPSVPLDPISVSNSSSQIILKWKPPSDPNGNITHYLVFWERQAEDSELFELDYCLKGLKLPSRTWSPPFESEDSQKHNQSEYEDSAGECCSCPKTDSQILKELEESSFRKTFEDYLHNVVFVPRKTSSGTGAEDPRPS
# Chain of Insulin receptor (P06213 763-1382 limits assumed): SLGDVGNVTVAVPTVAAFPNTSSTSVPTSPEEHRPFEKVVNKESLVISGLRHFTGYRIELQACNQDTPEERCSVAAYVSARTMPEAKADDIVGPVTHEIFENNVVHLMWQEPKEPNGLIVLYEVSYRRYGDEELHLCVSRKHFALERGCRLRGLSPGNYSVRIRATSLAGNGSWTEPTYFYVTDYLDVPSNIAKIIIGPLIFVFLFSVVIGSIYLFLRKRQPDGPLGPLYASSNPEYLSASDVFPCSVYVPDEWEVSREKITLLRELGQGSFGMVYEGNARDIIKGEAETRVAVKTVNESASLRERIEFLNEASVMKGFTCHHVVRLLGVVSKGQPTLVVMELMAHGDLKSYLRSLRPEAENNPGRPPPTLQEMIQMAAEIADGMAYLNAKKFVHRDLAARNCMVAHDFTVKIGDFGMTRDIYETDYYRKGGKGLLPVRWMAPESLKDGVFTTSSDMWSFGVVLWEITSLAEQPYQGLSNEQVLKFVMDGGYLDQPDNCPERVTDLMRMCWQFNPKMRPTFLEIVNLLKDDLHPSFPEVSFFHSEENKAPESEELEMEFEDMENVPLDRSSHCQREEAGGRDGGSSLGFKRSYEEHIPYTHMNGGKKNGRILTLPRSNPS
# Chain of Mast/stem cell growth factor receptor Kit (P10721 whole entry): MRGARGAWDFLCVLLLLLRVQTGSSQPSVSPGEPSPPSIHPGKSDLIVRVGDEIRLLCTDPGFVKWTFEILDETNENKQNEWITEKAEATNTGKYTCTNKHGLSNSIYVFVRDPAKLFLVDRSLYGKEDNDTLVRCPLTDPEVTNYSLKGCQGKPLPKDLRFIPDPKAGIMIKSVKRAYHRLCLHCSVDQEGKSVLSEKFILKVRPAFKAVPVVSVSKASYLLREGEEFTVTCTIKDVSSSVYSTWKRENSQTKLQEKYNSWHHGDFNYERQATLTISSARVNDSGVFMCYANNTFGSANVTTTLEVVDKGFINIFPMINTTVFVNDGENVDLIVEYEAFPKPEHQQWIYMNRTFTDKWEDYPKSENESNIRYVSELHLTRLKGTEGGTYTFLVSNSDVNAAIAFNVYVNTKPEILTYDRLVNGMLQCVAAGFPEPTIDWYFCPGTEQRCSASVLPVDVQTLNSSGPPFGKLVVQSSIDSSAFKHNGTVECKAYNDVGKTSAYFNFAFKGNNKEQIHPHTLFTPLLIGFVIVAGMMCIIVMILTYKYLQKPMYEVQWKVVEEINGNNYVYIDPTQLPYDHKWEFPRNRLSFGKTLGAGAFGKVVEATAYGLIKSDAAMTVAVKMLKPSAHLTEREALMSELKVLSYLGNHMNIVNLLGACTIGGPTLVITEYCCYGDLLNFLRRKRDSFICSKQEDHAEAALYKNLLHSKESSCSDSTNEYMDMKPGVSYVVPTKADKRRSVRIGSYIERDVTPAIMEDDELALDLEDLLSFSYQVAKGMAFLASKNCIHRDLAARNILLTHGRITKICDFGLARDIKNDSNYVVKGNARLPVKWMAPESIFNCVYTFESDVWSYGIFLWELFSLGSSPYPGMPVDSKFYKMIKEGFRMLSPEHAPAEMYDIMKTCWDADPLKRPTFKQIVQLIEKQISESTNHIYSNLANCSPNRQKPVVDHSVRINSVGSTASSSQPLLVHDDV
# Chain of MAP kinase-activated protein kinase 2 (P49137 whole entry): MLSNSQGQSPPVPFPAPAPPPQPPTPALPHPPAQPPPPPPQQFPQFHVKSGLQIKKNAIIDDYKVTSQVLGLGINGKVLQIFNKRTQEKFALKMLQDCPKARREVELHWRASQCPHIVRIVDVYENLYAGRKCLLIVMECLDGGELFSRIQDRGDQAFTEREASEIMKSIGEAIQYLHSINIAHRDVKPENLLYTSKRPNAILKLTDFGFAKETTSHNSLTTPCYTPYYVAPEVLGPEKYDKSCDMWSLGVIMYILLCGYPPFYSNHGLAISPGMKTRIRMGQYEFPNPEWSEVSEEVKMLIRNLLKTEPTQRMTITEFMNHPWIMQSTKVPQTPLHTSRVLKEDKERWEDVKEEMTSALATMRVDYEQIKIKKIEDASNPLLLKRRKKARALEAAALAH
smiles,measurement,setting,value
O=C(Nc1ccc(Oc2ccnc3[nH]ccc23)c(F)c1)c1cocc(-c2ccc(F)cc2)c1=O,IC50,[1],> 10 µM
same,IC50,[2],1.4 µM
O=C(Nc1ccc(Oc2ccnc3[nH]ccc23)c(F)c1)c1cccn(-c2ccccc2)c1=O,IC50,[3],> 5 µM
same,IC50,[1],0.14 µM
same,IC50,[2],0.0019 µM
NC(=O)c1ccc(-n2cccc(C(=O)Nc3ccc(Oc4ccnc5[nH]ccc45)c(F)c3)c2=O)cc1,IC50,[1],> 5 µM
same,IC50,[2],1 µM
CC(C)CCn1cccc(C(=O)Nc2ccc(Oc3ccnc4[nH]ccc34)c(F)c2)c1=O,IC50,[3],> 5 µM
same,IC50,[1],3.7 µM
same,IC50,[2],0.03 µM
O=C(Nc1ccc(Oc2ccnc3[nH]ccc23)c(F)c1)c1cccn(Cc2ccc(F)cc2)c1=O,IC50,[3],> 5 µM
same,IC50,[1],2.1 µM
same,IC50,[2],0.0082 µM
O=C(Nc1ccc(Oc2ccnc3[nH]ccc23)c(F)c1)c1cccn(-c2ccccn2)c1=O,IC50,[3],> 5 µM
same,IC50,[1],0.97 µM
same,IC50,[2],0.01 µM
O=C(Nc1ccc(Oc2ccnc3[nH]ccc23)c(F)c1)c1cncc(-c2ccc(F)cc2)c1O,IC50,[3],1.24 µM
same,IC50,[1],0.07 µM
same,IC50,[2],0.0028 µM
Cn1cc(C(=O)Nc2ccc(Oc3ccnc4[nH]ccc34)c(F)c2)c(=O)c(-c2ccc(F)cc2)c1,IC50,[3],2.62 µM
same,IC50,[1],0.15 µM
same,IC50,[2],0.0031 µM
O=C(Nc1ccc(Oc2ccnc3[nH]ccc23)c(F)c1)c1cn(C2CC2)cc(-c2ccc(F)cc2)c1=O,IC50,[3],> 5 µM
same,IC50,[1],0.06 µM
same,IC50,[2],0.0034 µM
O=C(Nc1ccc(Oc2ccnc3[nH]ccc23)c(F)c1)c1cccc(-c2ccccc2)[n+]1[O-],IC50,[3],> 5 µM
same,IC50,[1],0.04 µM
same,IC50,[2],0.0013 µM
O=C(Nc1ccc(Oc2ccnc3[nH]ccc23)c(F)c1)c1cccc(-c2ccc(F)cc2)[n+]1[O-],IC50,[3],4.9 µM
same,IC50,[1],0.04 µM
same,IC50,[2],0.0018 µM
COc1ccc(-n2cc(C(=O)Nc3ccc(Oc4ccnc5[nH]ccc45)c(F)c3)c(=O)c(-c3ccc(F)cc3)c2)cc1F,IC50,[3],> 5 µM
same,IC50,[1],0.2 µM
same,IC50,[2],0.005 µM
O=C(Nc1ccc(Oc2ccnc3[nH]ccc23)c(F)c1)c1cn(-c2ccc(Cl)c(F)c2)cc(-c2ccc(F)cc2)c1=O,IC50,[3],> 5 µM
same,IC50,[1],0.13 µM
same,IC50,[2],0.0023 µM
CC(C)(C)n1cccc(C(=O)Nc2ccc(Oc3ccnc4[nH]ccc34)c(F)c2)c1=O,IC50,[2],1 µM
O=C(Nc1ccc(Oc2ccnc3[nH]ccc23)c(F)c1)c1cccn(C2CC2)c1=O,IC50,[2],1 µM
O=C(Nc1ccc(Oc2ccnc3[nH]ccc23)c(F)c1)c1cccc(-c2ccccc2)n1,IC50,[2],0.47 µM
O=C(Nc1ccc(Oc2ccnc3[nH]ccc23)c(F)c1)c1cn(CCO)cc(-c2ccc(F)cc2)c1=O,IC50,[3],> 5 µM
same,IC50,[1],0.28 µM
same,IC50,[2],0.0038 µM
O=C(Nc1ccc(Oc2ccnc3[nH]ccc23)c(F)c1)c1cccn(-c2ccc(F)cc2)c1=O,inhibition in vivo at 25 mg/kg,[4],86%
same,IC50,[5],0.027 µM
same,AUC(0-t) at 24 h,[6],19.8 µM·h
same,IC50,[7],> 10 µM
same,IC50,[3],> 5 µM
same,AUC(0-t) at 24 h,[8],50.2 µM·h
same,Tmax,[9],0.5 h
same,IC50,[10],0.004 µM
same,Cmax,[11],11.5 µM
same,Activity,[12],99.4%
same,half-life,[13],2.2 h
same,IC50,[14],> 5 µM
same,IC50,[15],0.61 µM
same,IC50,[16],> 5 µM
same,IC50,[17],> 30 µM
same,Stability,[18],0.055 nM/min/mg
same,IC50,[19],> 1 µM
same,clearance,[20],0.552 L/h/kg
same,IC50,[21],0.29 µM
same,MTD at 336 h,[22],100 mg/kg
same,minimal effective dose,[23],12.5 mg/kg
same,Activity,[24],99.9%
same,MRT,[25],3 h
same,bioavailability,[26],100%
same,IC50,[27],> 30 µM
same,Stability,[28],< 0.01 nM/min/mg
same,Vd,[29],1.6 L/kg
same,half-life,[30],2.5 h
same,inhibition in vivo at 50 mg/kg,[31],110%
same,inhibition in vivo at 12.5 mg/kg,[32],62%
same,MRT,[33],4.5 h
O=C(Nc1ccc(Oc2ccnc3[nH]ccc23)c(F)c1)c1cccn(-c2cccnc2)c1=O,IC50,[3],> 5 µM
same,IC50,[1],4 µM
same,IC50,[2],0.07 µM

# From ChEMBL document CHEMBL1157356, “Discovery of pyrrolopyridine-pyridone based inhibitors of Met kinase: synthesis, X-ray crystallographic analysis, and biological activities” (J Med Chem, 2008)
